Data reported in the SangsterLogP compilation.

Row | logP | SMILES
1 | 1.07 | CN(C)c1nnc(C(C)(C)C)c(=O)n1C
2 | 3.02 | CSc1nnc(-c2cc(Cl)cc(Cl)c2)c(=O)n1N
3 | 1.91 | CNc1nnc(-c2cc(Cl)cc(Cl)c2)c(=O)n1N
4 | 2.67 | CCOc1cccc(-c2nnc(S)n(C)c2=O)c1
5 | 2.67 | Nn1c(S)nnc(-c2cc(Cl)cc(Cl)c2)c1=O
6 | 2.35 | CNc1nnc(-c2ccc(OC(F)(F)F)c(Cl)c2)c(=O)n1C
7 | 1.6 | CNc1nnc(-c2ccc(F)c(Cl)c2)c(=O)n1C
8 | 1.07 | CSc1nnc(C2CCOCC2)c(=O)n1N
9 | 1.03 | Cc1nnc(C(C)(C)C)c(=O)n1N
10 | 1.19 | CCCc1nnc(SC)n(N)c1=O
11 | 1.31 | COc1nnc(C(C)(C)C)c(=O)n1N
12 | 2.38 | Cn1c(S)nnc(-c2ccc(F)cc2)c1=O
13 | 1.53 | CSc1nnc(CC(C)C)c(=O)n1N
14 | 1.23 | CSc1nnc(C(C)C)c(=O)n1N
15 | 0.15 | CSc1nnc(C)c(=O)n1N
16 | 3.43 | Cn1c(S)nnc(-c2cc(Cl)cc(Cl)c2)c1=O
17 | 0.52 | CNc1nnc(C(C)(C)C)c(=O)n1N
18 | 2.35 | CSc1nnc(-c2ccc(OC(F)(F)F)cc2)c(=O)[nH]1
19 | 2.09 | CSc1nnc(C2CCCCC2)c(=O)n1N
20 | 1.86 | CNc1nnc(-c2ccc(OC(F)(F)F)cc2)c(=O)[nH]1
21 | 1.91 | CCOc1cccc(-c2nnc(C)n(NC)c2=O)c1
